Results as given in ChEMBL document CHEMBL1158156, “Structure-based design, synthesis, and biological evaluation of 1,1-dioxoisothiazole and benzo[b]thiophene-1,1-dioxide derivatives as novel inhibitors of hepatitis C virus NS5B polymerase” (Bioorg Med Chem Lett, 2008).

How the values were obtained:
[1] = Metabolic stability in human liver microsomes assessed as half life
[2] = Cytotoxicity against human Huh7/C24 cells after 72 hrs; assay type: cell-based, Huh-7
[3] = test system: Hepatitis C virus; assay: Inhibition of HCV 1b NS5B polymerase; design: species or system Hepatitis C virus subtype 1b
[4] = test system: Hepatitis C virus; assay: Antiviral activity against HCV 1b infected in human Huh7/C24 cells after 72 hrs by replicon assay; assay type: functional, organism-based, Hepacivirus hominis; conditions: genotype 1b, Huh-7, 72 h
[5] = AUC at 24 hrs in cynomolgus monkey at 1 mg/kg, po administered as single dose; assay type: ADME, organism-based, Macaca fascicularis; design: time < 24 hr, dose 1 mg/kg, route oral; conditions: plasma
[6] = Oral bioavailability in cynomolgus monkey at 1 mg/kg administered as single dose; assay type: ADME, organism-based, Macaca fascicularis; conditions: in vivo
[7] = Apparent permeability from apical to basolateral side in human Caco-2 cells; assay type: ADME, cell-based
[8] = Apparent permeability from basolateral to apical side in human Caco-2 cells; assay type: ADME, cell-based
[9] = Ratio of permeability from basolateral to apical over apical to basolateral side in human Caco-2 cells
[10] = Plasma concentration in cynomolgus monkey at 1 mg/kg, po administered as single dose after 12 hrs; assay type: ADME, organism-based, Macaca fascicularis; design: dose 1 mg/kg, route oral
[11] = Apparent permeability across human Caco-2 cells

| Structure (SMILES) | half-life ([1]; liver microsomes) | IC50 [3] | EC50 [4] | CC50 at 72 h [2] | other results |
| --- | --- | --- | --- | --- | --- |
| CN(Cc1cccc2c1S(=O)(=O)N=C2C1=C(O)[C@H](C(C)(C)C)N(Cc2ccc(F)c(Cl)c2)C1=O)S(C)(=O)=O | > 1 h | 0.023 µM | 0.09 µM | > 33 µM | AUC at 24 h [5]: 193 ng·h/mL; bioavailability [6]: 4%; Papp A→B [7]: 0.2 ×10⁻⁶ cm/s; Papp B→A [8]: 29 ×10⁻⁶ cm/s; efflux ratio [9]: 132; concentration at 12 h [10]: 3.1 ng/mL |
| CC(C)[C@H]1C(O)=C(C2=NS(=O)(=O)c3c(OCC#N)cccc32)C(=O)N1Cc1ccccc1 | > 1 h | 1.6 µM | 12 µM | > 33 µM | – |
| CC(C)(C)CCN1C(=O)C(C2=NS(=O)(=O)c3ccccc32)=C(O)[C@@H]1C(C)(C)C | 0.167 h | 0.42 µM | 4.3 µM | > 33 µM | AUC at 24 h [5]: 4680 ng·h/mL; Papp A→B [7]: 9.9 ×10⁻⁶ cm/s; Papp B→A [8]: 19 ×10⁻⁶ cm/s; efflux ratio [9]: 2; concentration at 12 h [10]: 5 ng/mL |
| CC(C)(C)[C@H]1C(O)=C(C2=NS(=O)(=O)c3c(OCC#N)cccc32)C(=O)N1Cc1ccc(F)c(Cl)c1 | > 1 h | 0.07 µM | 0.7 µM | > 33 µM | – |
| CC(C)(C)CCN1C(=O)C(C2=NS(=O)(=O)c3c(OCc4ncon4)cccc32)=C(O)[C@@H]1C(C)(C)C | 0.733 h | 0.65 µM | 2 µM | > 33 µM | – |
| CC(C)[C@H]1C(O)=C(C2=NS(=O)(=O)c3c(OCC(=O)N4CCOCC4)cccc32)C(=O)N1Cc1ccccc1 | > 1 h | 3.2 µM | > 33 µM | > 33 µM | – |
| CC(C)[C@H]1C(O)=C(C2=NS(=O)(=O)c3c(OCCC(N)=O)cccc32)C(=O)N1Cc1ccccc1 | – | 1.2 µM | 100 µM | > 33 µM | – |
| CC(C)NCC(O)COc1cccc2ccccc12 (configuration not stated) [PROPRANOLOL] | – | – | – | – | Papp [11]: 10 ×10⁻⁶ cm/s |
| CC(C)(C)[C@H]1C(O)=C(C2=NS(=O)(=O)c3c(CNS(C)(=O)=O)cccc32)C(=O)N1Cc1ccc(F)c(Cl)c1 | > 1 h | < 0.01 µM | 0.07 µM | > 33 µM | AUC at 24 h [5]: 38 ng·h/mL; bioavailability [6]: 1%; Papp A→B [7]: 0.1 ×10⁻⁶ cm/s; Papp B→A [8]: 15 ×10⁻⁶ cm/s; efflux ratio [9]: 150; concentration at 12 h [10]: 0.5 ng/mL |
| CCOc1cccc2c1S(=O)(=O)N=C2C1=C(O)[C@H](C2CCCCC2)N(CCC(C)(C)C)C1=O | – | 4 µM | – | > 33 µM | – |
| CCOc1cccc2c1S(=O)(=O)N=C2C1=C(O)[C@H](CC(C)C)N(CCC(C)(C)C)C1=O | – | 5.1 µM | – | > 33 µM | – |
| CC(C)(C)[C@H]1C(O)=C(C2=NS(=O)(=O)c3c(OCC(N)=O)cccc32)C(=O)N1Cc1ccc(F)c(Cl)c1 | > 1 h | 0.033 µM | 7.9 µM | > 33 µM | – |
| CC(C)[C@H]1C(O)=C(C2=NS(=O)(=O)c3c(OCc4ncon4)cccc32)C(=O)N1Cc1ccccc1 | > 1 h | 0.35 µM | 15 µM | > 33 µM | – |
| CCOc1cccc2c1S(=O)(=O)N=C2C1=C(O)[C@H](C(C)(C)C)N(Cc2cccc(Cl)c2)C1=O | – | 1.6 µM | – | > 33 µM | – |
| CC(C)[C@@]1(C)C(O)=C(C2=CS(=O)(=O)c3c(CN(C)S(C)(=O)=O)cccc32)C(=O)N1CCC(C)(C)C | > 1 h | 13 µM | – | > 33 µM | – |
| CCOc1cccc2c1S(=O)(=O)N=C2C1=C(O)C(c2cccs2)N(CCC(C)(C)C)C1=O (racemic) | – | 2.9 µM | – | > 33 µM | – |
| CC(C)(C)[C@H]1C(O)=C(C2=NS(=O)(=O)c3c(OCc4ncon4)cccc32)C(=O)N1Cc1ccc(F)c(Cl)c1 | > 1 h | 0.18 µM | 1.8 µM | > 33 µM | – |
| CN(Cc1cccc2c1S(=O)(=O)N=C2C1=C(O)C(C)(C)N(Cc2ccc(F)c(Cl)c2)C1=O)S(C)(=O)=O | > 1 h | 0.46 µM | – | > 33 µM | – |
| CN(Cc1cccc2c1S(=O)(=O)C=C2C1=C(O)[C@H](C(C)(C)C)N(CCC(C)(C)C)C1=O)S(C)(=O)=O | > 1 h | 0.92 µM | 5.8 µM | > 33 µM | – |

Second part, led by results:

| half-life ([1]; liver microsomes) | IC50 [3] | EC50 [4] | Structure (SMILES) | CC50 at 72 h [2] | other results |
| --- | --- | --- | --- | --- | --- |
| > 1 h | 0.094 µM | 13 µM | CC(C)(C)[C@H]1C(O)=C(C2=NS(=O)(=O)c3cc(NS(C)(=O)=O)ccc32)C(=O)N1Cc1ccc(F)c(Cl)c1 | > 33 µM | – |
| – | 21 µM | > 33 µM | CC(C)[C@H]1C(O)=C(C2=NS(=O)(=O)c3c(OCC(=O)C(C)(C)C)cccc32)C(=O)N1Cc1ccccc1 | > 33 µM | – |
| – | 0.018 µM | 0.35 µM | CC(C)(C)CCN1C(=O)C(C2=NS(=O)(=O)c3c(CNS(C)(=O)=O)cccc32)=C(O)[C@@H]1C(C)(C)C | > 33 µM | half-life ([1]; microsomes): > 1 h |
| – | 0.41 µM | – | CC[C@@]1(C)C(O)=C(C2=NS(=O)(=O)c3c(CN(C)S(C)(=O)=O)cccc32)C(=O)N1Cc1ccc(F)c(Cl)c1 | > 33 µM | half-life ([1]; microsomes): > 1 h |
| > 1 h | 0.62 µM | – | CN(Cc1cccc2c1S(=O)(=O)N=C2C1=C(O)C2(CC2)N(Cc2ccc(F)c(Cl)c2)C1=O)S(C)(=O)=O | > 33 µM | – |
| > 1 h | – | 24 µM | CC(C)[C@H]1C(O)=C(C2=NS(=O)(=O)c3ccccc32)C(=O)N1Cc1ccccc1 | > 33 µM | – |
| – | 9 µM | – | CCOc1cccc2c1S(=O)(=O)N=C2C1=C(O)[C@H](C(C)C)N(CCC(C)(C)C)C1=O | > 33 µM | – |
| > 1 h | 3.6 µM | 18 µM | CCOc1cccc2c1S(=O)(=O)N=C2C1=C(O)[C@H](C(C)C)N(Cc2ccccc2)C1=O | > 33 µM | – |
| > 1 h | 0.52 µM | 88 µM | CC(C)[C@H]1C(O)=C(C2=NS(=O)(=O)c3c(OCC(N)=O)cccc32)C(=O)N1Cc1ccccc1 | > 33 µM | – |
| > 1 h | 1.5 µM | – | CCOc1cccc2c1S(=O)(=O)N=C2C1=C(O)[C@H](C(C)(C)C)N(CCC(C)(C)C)C1=O | > 33 µM | – |
| – | 0.76 µM | – | CCOc1cccc2c1S(=O)(=O)N=C2C1=C(O)[C@H](C(C)(C)C)N(Cc2ccc(F)c(Cl)c2)C1=O | > 33 µM | half-life ([1]; microsomes): > 1 h |
| 0.8 h | 0.2 µM | 11 µM | CC(C)(C)CCN1C(=O)C(C2=NS(=O)(=O)c3c(OCC(N)=O)cccc32)=C(O)[C@@H]1C(C)(C)C | > 33 µM | – |
| > 1 h | 0.47 µM | 47 µM | CC(C)[C@H]1C(O)=C(C2=NS(=O)(=O)c3c(O)cccc32)C(=O)N1Cc1ccccc1 | > 33 µM | – |
| – | 0.13 µM | > 33 µM | CS(=O)(=O)NCc1cccc2c1S(=O)(=O)N=C2C1=C(O)C2(CC2)N(Cc2ccc(F)c(Cl)c2)C1=O | > 33 µM | half-life ([1]; microsomes): > 1 h |
| > 1 h | 0.24 µM | 6.4 µM | CC(C)(C)CCN1C(=O)C(C2=CS(=O)(=O)c3c(CNS(C)(=O)=O)cccc32)=C(O)[C@@H]1C(C)(C)C | > 33 µM | – |
| – | 5.1 µM | – | CCOc1cccc2c1S(=O)(=O)N=C2C1=C(O)[C@H](C(C)(C)C)N(CCC(C)C)C1=O | > 33 µM | – |
| > 1 h | 0.045 µM | 2.6 µM | CC(C)(C)CCN1C(=O)C(C2=NS(=O)(=O)c3c(CCS(C)(=O)=O)cccc32)=C(O)[C@@H]1C(C)(C)C | > 33 µM | – |
